Assay [1] deals with diet induced obese (DIO) mouse model. The assay is described as follows: Local injection of DBZ-NPs into inguinal WAT of diet-induced obese mice. Format: in vivo. As to conditions: in solution and nontargeted NP forms, vs nontreated obese mice. How it is done:
All procedures regarding animal maintenance and experimental use were performed according to the regulation presented by Purdue University's Animal Care and Use Committee. 10-week-old male die-induced obese (DIO) mice with the C57BL/6 background were purchased from Taconic and housed under normal condition at Purdue University. High-fat diet (Research Diets #D12492, 60% fat) was used to induce and maintain obesity in the mice. Mice with average body weight of 36 g at 14 weeks started to receive nanoparticle treatment. […]
For GTT, mice were intraperitoneally injected with 100 mg/ml D-glucose (2 g kg-1 body weight) after 16 h fasting. Blood was drawn from tails and glucose levels were measured by a glucometer (Accu-Check Active, Roche). […] Glucose concentrations were measured in the blood drawn from tails. […]
Serum levels of free fatty acids, glucose, cholesterol, and triglycerides from fasted DIO mice after treatment of nanoparticles for 5 weeks were examined by standard kits from Randox Laboratories. The insulin level in the serum was measured by ELISA according to the manufacturer's instructions (ALPCO). […]
Total RNA was extracted from cells or tissues through Trizol (Life Technologies) in accordance with the manufacture's protocol. […] The quantitative PCR was performed on the Roche Light Cycler 96 PCR System (Roche). […]

Assay [2] relates to cultured white adipocytes. The assay is described as follows: Notch inhibition and brown fat gene expression in cultured white adipocytes. The class given is cell-based. As to conditions: vs DMSO. An excerpt: (§1) Pharmacological inhibition of Notch signaling induces browning of white adipocytes during in vitro culture. Notch signaling is inhibited in cultured white adipocytes with the γ-secretase inhibitor DAPT (N—[N-(3,5-difluorophenacetyl)-1-alanyl]-S-phenylglycine t-butyl ester).

The subject of assay [3] is cultured white adipocytes. The assay is described as follows: Oxygen consumption rate of adipocytes treated with DAPT. The class given is cell-based. The following applies: vs adipocytes treated with DMSO.
Excerpt: as §1

With `CN(CCOc1ccc(CC2SC(=O)NC2=O)cc1)c1ccccn1` (stereo not shown) [Rosi], the body weight gain result in assay [1] was “no difference in body weight gain”.

As to `C[C@H](NC(=O)Cc1cc(F)cc(F)c1)C(=O)N[C@H](C(=O)OC(C)(C)C)c1ccccc1` [DAPT, (N—[N-(3,5-difluorophenacetyl)-1-alanyl]-S-phenylglycinet-butyl ester)], in assay [2], the “Notch signaling (mRNA levels of Notch targets)” value is “inhibited Notch signaling”; the “expression of brown fat specific genes Ucp1, Cidea, Prdm16 and Ppargc1a” value is “upregulated”. The “oxygen consumption rate (OCR)” value in assay [3] was “higher”.

The values are drawn from patent US20180326080A1, “POLYMER-BASED THERAPEUTICS FOR INDUCTIVE BROWNING OF FAT” (Purdue Research Foundation, priority 2015, published 2018).
